Consider 16 compounds from PubChem BioAssay (NCI).

Values joined by “and” are separate entries in the source; they are usually repeats but may differ in a detail not shown here. Equal entries are not always repeated.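 Grown in 96-well plates, cells were treated for 48 hours with each compound at five concentrations. Insufficient inhibition: endpoint recorded as highest concentration tested. At the GI50, growth is halved. TGI: total growth inhibition.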

The first test has as its system UO-31 renal. The test is described as follows: growth of human tumour cells (NCI), 48 h.
`Fc1cc2[nH]ncc2c2c3c(c(-c4cn[nH]c4)nc12)CCCC3`: the GI50 is 0.896 µM and the TGI turned out to be 3.87 µM.
For `C=C(Br)C(C)(Br)CCC(Br)C(C)(C)Cl` (stereo not drawn), the TGI is 32 µM.
On to `CSc1nc(NC2OCC(OC(C)=O)C(OC(C)=O)C2OC(C)=O)c(N=CC=Nc2c(NC3OCC(OC(C)=O)C(OC(C)=O)C3OC(C)=O)nc(SC)[nH]c2=O)c(=O)[nH]1` (stereo not drawn), for which the TGI is above 100 µM.
Take `CN(C)CCSC1=Nc2ccc(Cl)cc2C(c2ccccc2Cl)=NC1`: the GI50 was 9.23 µM and 53.4 µM; the TGI was 21.8 µM and > 100 µM.
On to `O=C1OC(O)[C@@H]2[C@H]1[C@H]1CC[C@@H]2O1` (stereo partly drawn), for which the GI50 is 66.6 µM and the TGI is above 100 µM.
Regarding `COc1cccc(-c2nc(-c3ccc(NC(=O)C(C)C)cc3)[nH]c2-c2ccnc(Br)c2)c1`, the GI50 is 3.2 µM and the TGI is above 100 µM.
With `COc1ccc(-c2nnc(COc3ccc(NC(=O)Nc4cc(C(F)(F)F)cc(C(F)(F)F)c4)cc3F)o2)cc1`, the GI50 is 2.09 µM and the TGI was 7.84 µM.
Turning to `COc1ccc(/C=C(/C#N)n2nnc3cccc(F)c32)cc1`, the GI50 was 1.8 µM and the TGI worked out at 6.87 µM.
As to `OCc1ccc(-c2ccc(-c3ccc(CO)s3)o2)s1`, the TGI was above 84.7 µM.
As for `COc1ccc(-c2nnc(COc3ccc(C(=O)/C=C/c4ccco4)cc3)o2)cc1`, the GI50 was 2.32 µM and the TGI came out at 6.69 µM.
For the compound `OC(c1nc2ccccc2[nH]1)C(O)C(O)C(O)c1nc2ccccc2[nH]1` (stereo not drawn), the TGI was above 100 µM.
As to `O=c1c2sccc2n(CC2COc3ccccc3O2)c(=O)n1O` (stereo not drawn), the GI50 was 16 µM and the TGI was 97.5 µM.
The matching figures for `COc1cc(/C=C/c2cc(O)c(C(C)=O)c(O)c2)cc2c1O[C@]1(C)CC[C@@H](O)C(C)(C)[C@H]1C2`: 3.22 µM and 65.5 µM.
`Cc1cccc2c1CC1(C2)Cc2c(C)cccc2C1=O` (stereo not drawn) yielded a TGI above 100 µM.
As to `CCN(CC)/C(SCc1ccccc1)=C(\C(Cl)=C(Cl)Cl)[N+](=O)[O-]`, the TGI is 38.9 µM.
`CC(C)C(C)/C=C\C(C)C1CCC2C3=CC=C4CC(O)CCC4(C)C3CCC21C` (stereo not drawn) had a TGI above 79 µM.

The subject of the next test is OVCAR-4 ovarian. In words: growth of human tumour cells (NCI), 48 h.
For `Fc1cc2[nH]ncc2c2c3c(c(-c4cn[nH]c4)nc12)CCCC3`, the GI50 was 1.69 µM and the TGI was found to be 8.14 µM.
`C=C(Br)C(C)(Br)CCC(Br)C(C)(C)Cl` (stereo not drawn) came in with a TGI of 34.4 µM.
The same measure, in the same setting: in the case of `CSc1nc(NC2OCC(OC(C)=O)C(OC(C)=O)C2OC(C)=O)c(N=CC=Nc2c(NC3OCC(OC(C)=O)C(OC(C)=O)C3OC(C)=O)nc(SC)[nH]c2=O)c(=O)[nH]1` (stereo not drawn) it was above 100 µM; in that of `CN(C)CCSC1=Nc2ccc(Cl)cc2C(c2ccccc2Cl)=NC1`, above 100 µM.
`O=C1OC(O)[C@@H]2[C@H]1[C@H]1CC[C@@H]2O1` (stereo partly drawn): the GI50 was above 100 µM and the TGI was above 100 µM.
As to `COc1cccc(-c2nc(-c3ccc(NC(=O)C(C)C)cc3)[nH]c2-c2ccnc(Br)c2)c1`, the GI50 was 3.54 µM and the TGI is above 100 µM.
On the same counts, the results for `COc1ccc(-c2nnc(COc3ccc(NC(=O)Nc4cc(C(F)(F)F)cc(C(F)(F)F)c4)cc3F)o2)cc1` are 2.29 µM and 8.53 µM.
With `COc1ccc(/C=C(/C#N)n2nnc3cccc(F)c32)cc1`, the GI50 is 2 µM and the TGI was above 100 µM.
`OCc1ccc(-c2ccc(-c3ccc(CO)s3)o2)s1` registered a TGI of 2.76 µM.
With `COc1ccc(-c2nnc(COc3ccc(C(=O)/C=C/c4ccco4)cc3)o2)cc1`, the GI50 was 12.8 µM and the TGI was determined as 26.6 µM.
`OC(c1nc2ccccc2[nH]1)C(O)C(O)C(O)c1nc2ccccc2[nH]1` (stereo not drawn): the TGI was above 100 µM.
As to `O=c1c2sccc2n(CC2COc3ccccc3O2)c(=O)n1O` (stereo not drawn), the GI50 was 13.9 µM and the TGI came to 98.7 µM.
As to `COc1cc(/C=C/c2cc(O)c(C(C)=O)c(O)c2)cc2c1O[C@]1(C)CC[C@@H](O)C(C)(C)[C@H]1C2`, the GI50 was 13.5 µM and the TGI amounted to 74.5 µM.
Take `Cc1cccc2c1CC1(C2)Cc2c(C)cccc2C1=O` (stereo not drawn): the TGI was above 100 µM.
The same measure, in the same setting: in the case of `CCN(CC)/C(SCc1ccccc1)=C(\C(Cl)=C(Cl)Cl)[N+](=O)[O-]` it was 44.6 µM; in that of `CC(C)C(C)/C=C\C(C)C1CCC2C3=CC=C4CC(O)CCC4(C)C3CCC21C` (stereo not drawn), above 100 µM.

The test system of another test is KM12 colon. The test is described as follows: growth of human tumour cells (NCI), 48 h.
As for `Fc1cc2[nH]ncc2c2c3c(c(-c4cn[nH]c4)nc12)CCCC3`, the GI50 is 1 µM and the TGI is 7.38 µM.
In the case of `C=C(Br)C(C)(Br)CCC(Br)C(C)(C)Cl` (stereo not drawn), the TGI was 32 µM.
Consider `CSc1nc(NC2OCC(OC(C)=O)C(OC(C)=O)C2OC(C)=O)c(N=CC=Nc2c(NC3OCC(OC(C)=O)C(OC(C)=O)C3OC(C)=O)nc(SC)[nH]c2=O)c(=O)[nH]1` (stereo not drawn), for which the TGI was above 100 µM.
For `CN(C)CCSC1=Nc2ccc(Cl)cc2C(c2ccccc2Cl)=NC1`, the GI50 was 16.5 µM and 44.1 µM; the TGI is 34.3 µM and > 100 µM.
Consider `O=C1OC(O)[C@@H]2[C@H]1[C@H]1CC[C@@H]2O1` (stereo partly drawn), for which the GI50 is 21.5 µM and the TGI stood at 72.8 µM.
On to `COc1cccc(-c2nc(-c3ccc(NC(=O)C(C)C)cc3)[nH]c2-c2ccnc(Br)c2)c1`, for which the GI50 is 2.96 µM and the TGI was above 100 µM.
The matching figures for `COc1ccc(-c2nnc(COc3ccc(NC(=O)Nc4cc(C(F)(F)F)cc(C(F)(F)F)c4)cc3F)o2)cc1`: 1.51 µM and 3.7 µM.
`COc1ccc(/C=C(/C#N)n2nnc3cccc(F)c32)cc1`: the GI50 is 0.519 µM and the TGI worked out at 4.54 µM.
In turn, `OCc1ccc(-c2ccc(-c3ccc(CO)s3)o2)s1` showed a TGI of 85.3 µM.
For `COc1ccc(-c2nnc(COc3ccc(C(=O)/C=C/c4ccco4)cc3)o2)cc1`, the GI50 was 1.75 µM and the TGI was 3.62 µM.
In turn, `OC(c1nc2ccccc2[nH]1)C(O)C(O)C(O)c1nc2ccccc2[nH]1` (stereo not drawn) came in with a TGI above 100 µM.
For `O=c1c2sccc2n(CC2COc3ccccc3O2)c(=O)n1O` (stereo not drawn), the GI50 is 9.21 µM and the TGI was determined as 86 µM.
For `COc1cc(/C=C/c2cc(O)c(C(C)=O)c(O)c2)cc2c1O[C@]1(C)CC[C@@H](O)C(C)(C)[C@H]1C2`, the GI50 was 5.41 µM and the TGI was determined as 45.4 µM.
In the case of `Cc1cccc2c1CC1(C2)Cc2c(C)cccc2C1=O` (stereo not drawn), the TGI is 51.5 µM.
The compound `CCN(CC)/C(SCc1ccccc1)=C(\C(Cl)=C(Cl)Cl)[N+](=O)[O-]` displayed a TGI of 36.5 µM.
On the same count and under the same terms, in the case of `CC(C)C(C)/C=C\C(C)C1CCC2C3=CC=C4CC(O)CCC4(C)C3CCC21C` (stereo not drawn) it was above 100 µM.

The next test has as its system MCF7 breast. The test is described as follows: growth of human tumour cells (NCI), 48 h.
For `Fc1cc2[nH]ncc2c2c3c(c(-c4cn[nH]c4)nc12)CCCC3`, the GI50 was 1.45 µM and the TGI came out at 12.8 µM.
Consider `C=C(Br)C(C)(Br)CCC(Br)C(C)(C)Cl` (stereo not drawn), for which the TGI was 31.5 µM.
On the same count and under the same terms, in the case of `CSc1nc(NC2OCC(OC(C)=O)C(OC(C)=O)C2OC(C)=O)c(N=CC=Nc2c(NC3OCC(OC(C)=O)C(OC(C)=O)C3OC(C)=O)nc(SC)[nH]c2=O)c(=O)[nH]1` (stereo not drawn) it was above 100 µM.
For `CN(C)CCSC1=Nc2ccc(Cl)cc2C(c2ccccc2Cl)=NC1`, the GI50 is 12 µM and 67.4 µM; the TGI is 25.5 µM and > 100 µM.
Turning to `O=C1OC(O)[C@@H]2[C@H]1[C@H]1CC[C@@H]2O1` (stereo partly drawn), the GI50 was above 100 µM and the TGI is above 100 µM.
Regarding `COc1cccc(-c2nc(-c3ccc(NC(=O)C(C)C)cc3)[nH]c2-c2ccnc(Br)c2)c1`, the GI50 was 1.67 µM and the TGI worked out at 5.2 µM.
Regarding `COc1ccc(-c2nnc(COc3ccc(NC(=O)Nc4cc(C(F)(F)F)cc(C(F)(F)F)c4)cc3F)o2)cc1`, the GI50 was 2 µM and the TGI worked out at 5.04 µM.
With `COc1ccc(/C=C(/C#N)n2nnc3cccc(F)c32)cc1`, the GI50 is 0.524 µM and the TGI was above 100 µM.
`OCc1ccc(-c2ccc(-c3ccc(CO)s3)o2)s1` yielded a TGI of 2.59 µM.
For `COc1ccc(-c2nnc(COc3ccc(C(=O)/C=C/c4ccco4)cc3)o2)cc1`, the GI50 was 1.39 µM and the TGI was 3.28 µM.
`OC(c1nc2ccccc2[nH]1)C(O)C(O)C(O)c1nc2ccccc2[nH]1` (stereo not drawn): the TGI was above 100 µM.
With `O=c1c2sccc2n(CC2COc3ccccc3O2)c(=O)n1O` (stereo not drawn), the GI50 was 5.17 µM and the TGI was above 100 µM.
On the same counts, the results for `COc1cc(/C=C/c2cc(O)c(C(C)=O)c(O)c2)cc2c1O[C@]1(C)CC[C@@H](O)C(C)(C)[C@H]1C2` are 3.31 µM and 22.2 µM.
Take `Cc1cccc2c1CC1(C2)Cc2c(C)cccc2C1=O` (stereo not drawn): the TGI worked out at 94.7 µM.
Consider `CCN(CC)/C(SCc1ccccc1)=C(\C(Cl)=C(Cl)Cl)[N+](=O)[O-]`, for which the TGI is 32.1 µM.
Same read-out and setting: for `CC(C)C(C)/C=C\C(C)C1CCC2C3=CC=C4CC(O)CCC4(C)C3CCC21C` (stereo not drawn) the value was above 100 µM.

The test system of the next test is SF-295 CNS. The test is described as follows: growth of human tumour cells (NCI), 48 h.
In the case of `Fc1cc2[nH]ncc2c2c3c(c(-c4cn[nH]c4)nc12)CCCC3`, the GI50 was 1.44 µM and the TGI was 6.44 µM.
On to `C=C(Br)C(C)(Br)CCC(Br)C(C)(C)Cl` (stereo not drawn), for which the TGI was found to be 32.7 µM.
The same measure, in the same setting: for `CSc1nc(NC2OCC(OC(C)=O)C(OC(C)=O)C2OC(C)=O)c(N=CC=Nc2c(NC3OCC(OC(C)=O)C(OC(C)=O)C3OC(C)=O)nc(SC)[nH]c2=O)c(=O)[nH]1` (stereo not drawn) the value was above 100 µM.
Turning to `CN(C)CCSC1=Nc2ccc(Cl)cc2C(c2ccccc2Cl)=NC1`, the GI50 is 16 µM and 68.7 µM; the TGI is 31.5 µM and > 100 µM.
For the compound `O=C1OC(O)[C@@H]2[C@H]1[C@H]1CC[C@@H]2O1` (stereo partly drawn), the GI50 was above 100 µM and the TGI is above 100 µM.
As for `COc1cccc(-c2nc(-c3ccc(NC(=O)C(C)C)cc3)[nH]c2-c2ccnc(Br)c2)c1`, the GI50 is 0.273 µM and the TGI was found to be 0.759 µM.
Take `COc1ccc(-c2nnc(COc3ccc(NC(=O)Nc4cc(C(F)(F)F)cc(C(F)(F)F)c4)cc3F)o2)cc1`: the GI50 was 2.11 µM and the TGI was found to be 5.21 µM.
For `COc1ccc(/C=C(/C#N)n2nnc3cccc(F)c32)cc1`, the GI50 is 2.35 µM and the TGI amounted to 17.8 µM.
For `OCc1ccc(-c2ccc(-c3ccc(CO)s3)o2)s1`, the TGI stood at 74.1 µM.
With `COc1ccc(-c2nnc(COc3ccc(C(=O)/C=C/c4ccco4)cc3)o2)cc1`, the GI50 is 3.75 µM and the TGI was determined as 14.7 µM.
The compound `OC(c1nc2ccccc2[nH]1)C(O)C(O)C(O)c1nc2ccccc2[nH]1` (stereo not drawn) displayed a TGI above 100 µM.
In the case of `O=c1c2sccc2n(CC2COc3ccccc3O2)c(=O)n1O` (stereo not drawn), the GI50 is 9.51 µM and the TGI was above 100 µM.
Regarding `COc1cc(/C=C/c2cc(O)c(C(C)=O)c(O)c2)cc2c1O[C@]1(C)CC[C@@H](O)C(C)(C)[C@H]1C2`, the GI50 was 2.92 µM and the TGI amounted to 10.5 µM.
For the compound `Cc1cccc2c1CC1(C2)Cc2c(C)cccc2C1=O` (stereo not drawn), the TGI was 68.8 µM.
For the compound `CCN(CC)/C(SCc1ccccc1)=C(\C(Cl)=C(Cl)Cl)[N+](=O)[O-]`, the TGI was above 100 µM.
